Where a SMILES comes first, the peptide text is derived from it. [ ]: non-standard residue; d: D form. NMeF = CN[C@@H](Cc1ccccc1)C(=O)O; NMeI = CC[C@H](C)[C@H](NC)C(=O)O; dNMeF = CN[C@H](Cc1ccccc1)C(=O)O; NMeL = CN[C@@H](CC(C)C)C(=O)O; dNMeL = CN[C@H](CC(C)C)C(=O)O; NMeV = CN[C@H](C(=O)O)C(C)C; NMeA = CN[C@@H](C)C(=O)O; dNMeA = CN[C@H](C)C(=O)O; Sar = CNCC(=O)O
Conditions: PAMPA

Row | PAMPA_Papp_Avg (apparent permeability) | SMILES
1 | 4.9 nm/s | CC(C)[C@@H]1NC(=O)[C@H]2CCCN2C(=O)[C@@H](C(C)C)NC(=O)[C@@H]2CCCN2C(=O)[C@H](Cc2ccccc2)NC(=O)[C@H](Cc2ccccc2)NC(=O)[C@H]2CCCN2C(=O)[C@@H](C(C)C)NC(=O)[C@@H]2CCCN2C(=O)[C@H](C(C)C)NC1=O [Design D10.27, PvpVVPvpFF] (cyclo(FFP[dV][dP]VVP[dV][dP]))
2 | 1.84 nm/s | CC(C)C[C@@H]1C(=O)N[C@@H](C)C(=O)N[C@H](CC(C)C)C(=O)N(C)[C@@H](C)C(=O)N2CCC[C@@H]2C(=O)N2CCC[C@@H]2C(=O)N2CCC[C@@H]2C(=O)N2CCC[C@H]2C(=O)N[C@H](C(C)C)C(=O)N(C)[C@@H](CC(C)C)C(=O)N1C [Design D10.28, l*ApppPv*L*lA] (cyclo([dV][NMeL][dNMeL]A[dL][NMeA][dP][dP][dP]P))
3 | 47.8 nm/s | CC[C@@H](C)[C@H]1NC(=O)[C@H](Cc2ccccc2)NC(=O)[C@@H](CC(C)C)N(C)C(=O)[C@@H]2CCCN2C(=O)[C@@H](C(C)C)NC(=O)[C@@H](C)N(C)C(=O)[C@H]2CCCN2C(=O)[C@@H](CC(C)C)NC(=O)[C@H](CC(C)C)NC(=O)[C@@H]2CCCN2C1=O [Design D10.30, P*lFiPLlp*av] (cyclo(F[dI]PL[dL][dP][dNMeA][dV]P[dNMeL]))
4 | 19 nm/s | CC[C@H](C)[C@@H]1NC(=O)[C@@H](CC(C)C)NC(=O)[C@@H](C)N(C)C(=O)[C@H](Cc2ccccc2)NC(=O)[C@@H](CC(C)C)NC(=O)[C@@H](C)N(C)C(=O)[C@@H]2CCCN2C(=O)[C@H](C(C)C)NC(=O)[C@H]2CCCN2C(=O)[C@@H]2CCCN2C1=O [Design D10.31, F*alIPpVP*al] (cyclo(F[dNMeA][dL]IP[dP]VP[dNMeA][dL]))
5 | 56.9 nm/s | CC[C@H](C)[C@@H]1NC(=O)[C@@H](C(C)C)NC(=O)[C@@H](CC(C)C)N(C)C(=O)[C@H]2CCCN2C(=O)[C@@H](CC(C)C)NC(=O)[C@@H](CC(C)C)N(C)C(=O)[C@H](CC(C)C)NC(=O)[C@H]2CCCN2C(=O)[C@H](C)N(C)C(=O)[C@H]2CCCN2C1=O [Design D10.41, p*lvIp*ApL*ll] (cyclo(I[dP][NMeA][dP]L[dNMeL][dL][dP][dNMeL][dV]))
6 | 1.61 nm/s | CC(C)C[C@@H]1C(=O)N[C@@H](C)C(=O)N[C@H](CC(C)C)C(=O)N2CCC[C@H]2C(=O)N[C@H](C)C(=O)N2CCC[C@@H]2C(=O)N2CCC[C@H]2C(=O)N[C@H](C(C)C)C(=O)N[C@H](CC(C)C)C(=O)N(C)[C@H](CC(C)C)C(=O)N1C [Design D10.43, apPvl*l*LAlP] (cyclo([dV][dL][dNMeL][dNMeL]A[dL]P[dA][dP]P))
7 | 4.87 nm/s | CC[C@H](C)[C@@H]1NC(=O)[C@@H](Cc2ccccc2)NC(=O)[C@@H](C)NC(=O)[C@@H](C(C)C)NC(=O)[C@H](CCSC)NC(=O)[C@@H]2CCCN2C(=O)[C@H]2CCCN2C(=O)[C@@H]2CCCN2C(=O)[C@@H](C)N(C)C(=O)[C@@H](CC(C)C)N(C)C1=O [Design D10.45, vafI*l*aPpPM] (cyclo(M[dV][dA][dF]I[dNMeL][dNMeA]P[dP]P))
8 | 30.5 nm/s | CC(C)C[C@@H]1NC(=O)[C@@H](CC(C)C)N(C)C(=O)[C@@H]2CCCN2C(=O)[C@H](CC(C)C)N(C)C(=O)[C@@H](C)NC(=O)[C@@H](CC(C)C)N(C)C(=O)[C@@H]2CCCN2C(=O)CN(C)C(=O)[C@H](CC(C)C)N(C)C(=O)[C@H](Cc2ccccc2)NC1=O [Design D10.57, *L*GP*la*LP*lLF] (cyclo(F[NMeL][Sar]P[dNMeL][dA][NMeL]P[dNMeL]L))
9 | 34.8 nm/s | CC[C@@H](C)[C@H]1NC(=O)[C@@H]2CCCN2C(=O)[C@@H]([C@H](C)CC)NC(=O)[C@@H](C)N(C)C(=O)[C@H](CC(C)C)NC(=O)[C@@H](Cc2ccccc2)NC(=O)[C@H](CC(C)C)N(C)C(=O)[C@H]2CCCN2C(=O)[C@@H](CC(C)C)NC(=O)[C@H](CC(C)C)NC(=O)[C@H]2CCCN2C1=O [Design D11.1, ipLlp*LfL*aiP] (cyclo(L[dL][dP][NMeL][dF]L[dNMeA][dI]P[dI][dP]))

Second part, the compound before the results:

Row | SMILES | PAMPA_Papp_Avg (apparent permeability)
10 | CC[C@H](C)[C@@H]1NC(=O)[C@H]2CCCN2C(=O)[C@@H]2CCCN2C(=O)[C@H](C(C)C)NC(=O)[C@@H](C(C)C)NC(=O)[C@H](Cc2ccccc2)N(C)C(=O)[C@H]2CCCN2C(=O)[C@@H](CC(C)C)N(C)C(=O)[C@@H](CC(C)C)NC1=O [Design D9.42, pIl*lp*FvVP] (cyclo(I[dL][dNMeL][dP][NMeF][dV]VP[dP])) | 11.2 nm/s
11 | CC(C)C[C@@H]1NC(=O)[C@@H](CC(C)C)NC(=O)[C@@H]2CCCN2C(=O)[C@@H](CC(C)C)NC(=O)[C@H](C)N(C)C(=O)[C@H](C)NC(=O)[C@H](CC(C)C)N(C)C(=O)[C@@H]2CCCN2C(=O)[C@H](CC(C)C)NC(=O)[C@H](CC(C)C)N(C)C1=O [Design D10.16, lL*LLP*LA*AlP] (cyclo(A[NMeA][dL]P[dL]L[NMeL]LP[NMeL])) | 22.7 nm/s
12 | CC[C@H](C)[C@H]1C(=O)N[C@H](C)C(=O)N[C@@H](CC(C)C)C(=O)N[C@@H](C(C)C)C(=O)N2CCC[C@@H]2C(=O)N(C)[C@@H](CC(C)C)C(=O)N[C@@H](C(C)C)C(=O)N2CCC[C@H]2C(=O)N(C)[C@H](CC(C)C)C(=O)N[C@@H](C(C)C)C(=O)N1C [Design D10.19, aLVp*LVP*lV*I] (cyclo(LV[dP][NMeL]VP[dNMeL]V[NMeI][dA])) | 63.6 nm/s
13 | CC(C)C[C@@H]1NC(=O)[C@@H](Cc2ccccc2)NC(=O)[C@@H](CC(C)C)N(C)C(=O)[C@@H]2CCCN2C(=O)[C@H](C)NC(=O)[C@@H](CC(C)C)N(C)C(=O)[C@@H]2CCCN2C(=O)[C@H](CC(C)C)N(C)C(=O)[C@H](CC(C)C)N(C)C(=O)[C@H](C(C)C)NC1=O [Design D10.20, P*lAP*lfLV*L*L] (cyclo(AP[dNMeL][dF]LV[NMeL][NMeL]P[dNMeL])) | 25.9 nm/s
14 | CC(C)C[C@@H]1C(=O)N(C)[C@H](C)C(=O)N(C)[C@@H](C(C)C)C(=O)N2CCC[C@@H]2C(=O)N[C@H](C)C(=O)N[C@@H](Cc2ccccc2)C(=O)N2CCC[C@@H]2C(=O)N2CCC[C@H]2C(=O)N[C@H](C(C)C)C(=O)N[C@@H](C(C)C)C(=O)N1C [Design D10.29, FpPvV*l*a*Vpa] (cyclo([dV]V[dNMeL][dNMeA][NMeV][dP][dA]F[dP]P)) | 4.41 nm/s
15 | CC[C@@H](C)[C@H]1NC(=O)[C@@H](Cc2ccccc2)NC(=O)[C@@H](CC(C)C)NC(=O)[C@@H]2CCCN2C(=O)[C@H]2CCCN2C(=O)[C@H](CC(C)C)NC(=O)[C@H](CC(C)C)NC(=O)[C@@H](CC(C)C)N(C)C(=O)[C@H](C)N(C)C(=O)[C@H]2CCCN2C1=O [Design D10.34, fip*A*lLLpPl] (cyclo([dL][dF][dI][dP][NMeA][dNMeL]LL[dP]P)) | 45.1 nm/s
16 | CC(C)C[C@@H]1NC(=O)[C@H](C(C)C)NC(=O)[C@@H](CC(C)C)N(C)C(=O)[C@H](C)NC(=O)[C@@H](CC(C)C)N(C)C(=O)[C@@H]2CCCN2C(=O)[C@H]2CCCN2C(=O)[C@H](C)N(C)C(=O)[C@H]2CCCN2C(=O)[C@@H](CC(C)C)NC1=O [Design D10.35, Llp*ApP*LA*lV] (cyclo([dNMeL]A[dNMeL]VL[dL][dP][NMeA][dP]P)) | 2.79 nm/s
17 | CC[C@@H](C)[C@H]1NC(=O)[C@@H](Cc2ccccc2)NC(=O)[C@H](CC(C)C)NC(=O)[C@@H](C)N(C)C(=O)[C@@H](CC(C)C)NC(=O)[C@H](CC(C)C)NC(=O)[C@H]2CCCN2C(=O)[C@@H]2CCCN2C(=O)[C@@H](C)NC(=O)[C@H]2CCCN2C1=O [Design D10.37, l*aLfipaPpL] (cyclo(L[dF][dI][dP][dA]P[dP]L[dL][dNMeA])) | 6.54 nm/s
18 | CC[C@@H](C)[C@H]1NC(=O)[C@H]2CCCN2C(=O)[C@@H]2CCCN2C(=O)[C@@H](CC(C)C)NC(=O)[C@H](C)NC(=O)[C@@H](CC(C)C)N(C)C(=O)[C@@H](C)N(C)C(=O)[C@@H]2CCCN2C(=O)[C@@H]([C@H](C)CC)NC(=O)[C@@H](CC(C)C)N(C)C1=O [Design D10.39, P*a*lAlPpi*li] (cyclo(A[dL]P[dP][dI][dNMeL][dI]P[dNMeA][dNMeL])) | 14.8 nm/s
19 | CC(C)C[C@H]1NC(=O)[C@@H](C(C)C)NC(=O)[C@H](CC(C)C)N(C)C(=O)[C@@H](Cc2ccccc2)NC(=O)[C@H](CC(C)C)N(C)C(=O)[C@H]2CCCN2C(=O)[C@@H]2CCCN2C(=O)[C@H]2CCCN2C(=O)[C@@H](C(C)C)NC(=O)[C@H]2CCCN2C1=O [Design D10.42, vlpvpPp*Lf*L] (cyclo([dP][NMeL][dF][NMeL][dV][dL][dP][dV][dP]P)) | 7.1 nm/s
20 | CC(C)C[C@@H]1NC(=O)[C@H](C)NC(=O)[C@@H]2CCCN2C(=O)[C@H]2CCCN2C(=O)[C@H](Cc2ccccc2)NC(=O)[C@H]2CCCN2C(=O)[C@@H](Cc2ccccc2)N(C)C(=O)[C@@H]2CCCN2C(=O)[C@@H](C)NC(=O)[C@H](CC(C)C)NC1=O [Design D10.49, aP*fpFpPALL] (cyclo(ALL[dA]P[dNMeF][dP]F[dP]P)) | 1.7 nm/s
21 | CC[C@@H](C)[C@H]1NC(=O)[C@H](Cc2ccccc2)N(C)C(=O)[C@@H](CC(C)C)N(C)C(=O)[C@H](C(C)C)NC(=O)[C@H](C)NC(=O)[C@@H]2CCCN2C(=O)[C@H](CC(C)C)N(C)C(=O)[C@@H](Cc2ccccc2)N(C)C(=O)[C@H](C)N(C)C(=O)[C@H](C)N(C)C1=O [Design D10.56, *f*LPAV*l*Fi*A*A] (cyclo(AV[dNMeL][NMeF][dI][NMeA][NMeA][dNMeF][NMeL]P)) | 90.2 nm/s
22 | C[C@H]1NC(=O)[C@@H](Cc2ccccc2)NC(=O)[C@H](Cc2ccccc2)N(C)C(=O)[C@H](Cc2ccccc2)N(C)C(=O)[C@@H](Cc2ccccc2)NC(=O)[C@H]2CCCN2C(=O)CNC(=O)[C@@H](C)NC(=O)[C@@H]2CCCN2C(=O)[C@@H](Cc2ccccc2)NC1=O [Design D10.62, aGpf*F*FfafP] (cyclo(G[dP][dF][NMeF][NMeF][dF][dA][dF]P[dA])) | 42.3 nm/s
23 | CC[C@@H](C)[C@H]1NC(=O)[C@@H](CC(C)C)NC(=O)[C@H](C(C)C)NC(=O)[C@@H](CC(C)C)N(C)C(=O)[C@@H]2CCCN2C(=O)[C@H](C)NC(=O)[C@H](CC(C)C)N(C)C(=O)[C@H]2CCCN2C(=O)[C@H](C)N(C)C(=O)[C@@H](CC(C)C)N(C)C(=O)[C@@H]2CCCN2C1=O [Design D11.5, AP*lVliP*l*Ap*L] (cyclo(AP[dNMeL]V[dL][dI]P[dNMeL][NMeA][dP][NMeL])) | 28.1 nm/s

From patent US20260274895A1, “DE NOVO DESIGNED MEMBRANE-TRAVERSING AND ORALLY BIOAVAILABLE MACROCYCLES” (UNIVERSITY OF WASHINGTON, priority 2022, published 2026)
